These results are taken from PubChem BioAssay (NCI).

“And” between values parts separate entries of the source, which are not always exact repeats. Identical values can stand only once.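 Step 1: Grow cells in 96-well plates. Step 2: Expose to compound for 48 hours at 5 concentrations. Step 3: Interpolate endpoints linearly; if unreached, use highest concentration. Abbreviation: GI50, concentration required for 50% inhibition of growth. TGI is the concentration that stops growth completely.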

Among the test systems are 786-0 renal; A498 renal; EKVX NSCLC; IGROV1 ovarian; NCI-H460 lung; NCI-H522 lung; SF-539 CNS; SK-MEL-5 melanoma; SNB-75 CNS; U251 CNS.
Holding throughout (assay): inhibition of tumour cell growth, NCI panel, 48 h

For the compound `CCc1ccc([OH2+])c(C(=O)[O-])c1.CCc1ccc([OH2+])c(C(=O)[O-])c1.CCc1ccc([OH2+])c(C(=O)[O-])c1.CCc1ccc([OH2+])c(C(=O)[O-])c1.[Cu+2].[Cu+2]`, the GI50 in the experiment with 786-0 renal is above 100 µM; in the experiment with A498 renal it was 21.2 µM; in the experiment on EKVX NSCLC it was above 100 µM; in the experiment on IGROV1 ovarian it was above 69.6 µM; in the experiment with NCI-H460 lung, 52.6 µM; in the experiment with NCI-H522 lung it was above 86 µM. The GI50 was above 100 µM with SF-539 CNS, 17.6 µM in the experiment with SK-MEL-5 melanoma, 40.6 µM in the experiment on SNB-75 CNS and above 59.9 µM with U251 CNS. The TGI was above 100 µM in the experiment with 786-0 renal; 40.5 µM with A498 renal; above 100 µM with EKVX NSCLC; above 100 µM in the experiment on IGROV1 ovarian; above 100 µM in the experiment on NCI-H460 lung; above 100 µM in the experiment with NCI-H522 lung. For the same compound, the TGI with SF-539 CNS was above 100 µM; in the experiment on SK-MEL-5 melanoma it was 42.9 µM; in the experiment on SNB-75 CNS, above 89.3 µM; in the experiment on U251 CNS it was above 100 µM.
Consider `O=C1N(c2ccc(Cl)cc2)C(=O)C2(SC=NN2Cc2ccccc2)N1c1ccc(Cl)cc1` (stereo unspecified), for which the TGI with 786-0 renal, in the experiment with A498 renal, in the experiment on EKVX NSCLC, with IGROV1 ovarian, in the experiment with NCI-H460 lung and in the experiment with NCI-H522 lung was above 100 µM each time. Moreover, the TGI in the experiment on SF-539 CNS, in the experiment on SK-MEL-5 melanoma, in the experiment with SNB-75 CNS and with U251 CNS was above 100 µM in each case.
As for `CC/C(=C/c1ccc(OC)cc1)[N+](=O)[O-]`, the GI50 in the experiment with 786-0 renal is 1.7 µM; in the experiment with A498 renal, 1.87 µM; with EKVX NSCLC, 14.2 µM; with IGROV1 ovarian, 2.82 µM; with NCI-H460 lung, 2.11 µM; in the experiment with NCI-H522 lung, 1.56 µM. The GI50 is 1.82 µM in the experiment with SF-539 CNS, 1.87 µM in the experiment on SK-MEL-5 melanoma, 2.83 µM with SNB-75 CNS and 3.18 µM with U251 CNS. The TGI in the experiment with 786-0 renal worked out at 3.14 µM; in the experiment with A498 renal it was 9.09 µM; in the experiment with EKVX NSCLC, 27.2 µM; in the experiment on IGROV1 ovarian it was 8.16 µM; with NCI-H460 lung, 4.47 µM; with NCI-H522 lung, 3.06 µM. In addition, the TGI in the experiment on SF-539 CNS turned out to be 3.38 µM; in the experiment with SK-MEL-5 melanoma, 3.56 µM; with SNB-75 CNS, 15 µM; in the experiment on U251 CNS, 10.5 µM.
Turning to `COc1cc2c(cc1O)CCN[C@@]21CS[C@H]2c3c(OC(C)=O)c(C)c4c(c3C(COC1=O)N1C2C2NC(Cc3cc(C)c(OC)c(O)c32)[C@@H]1O)OCO4` (stereo partly specified), the GI50 in the experiment on 786-0 renal was 4.5 ng/mL; with EKVX NSCLC it was 0.000588 ng/mL; with IGROV1 ovarian, 0.000551 ng/mL and 4.5 ng/mL; in the experiment on NCI-H522 lung, 4.5 ng/mL; in the experiment on SF-539 CNS, 4.5 ng/mL; in the experiment with SNB-75 CNS it was 4.5 ng/mL. The GI50 with U251 CNS is 4.5 ng/mL. Further, the TGI is 30.8 nM and 0.0045 µg/mL in the experiment with 786-0 renal; < 10 nM and 6.8e-07 µg/mL and 0.0045 µg/mL with A498 renal; < 10 nM and 1.3e-05 µg/mL with EKVX NSCLC; 10.5 µM and 0.000362 µg/mL and 0.0045 µg/mL with IGROV1 ovarian; below 0.01 µM with NCI-H460 lung; < 10 nM and 0.0045 µg/mL in the experiment with NCI-H522 lung. Besides, the TGI in the experiment with SF-539 CNS is < 10 nM and 0.0045 µg/mL; with SK-MEL-5 melanoma, < 10 nM and 2.8e-07 µg/mL and 0.0045 µg/mL; in the experiment on U251 CNS it was < 10 nM and 0.28 µg/mL.
As for `COc1ccc([C@@H]2[C@@H](Cl)C(=O)N2c2cc(OC)c(OC)c(OC)c2)cc1C`, the GI50 with 786-0 renal is 0.0643 µM; in the experiment on A498 renal, 0.0335 µM; in the experiment on EKVX NSCLC, 0.0659 µM; in the experiment with IGROV1 ovarian, 0.0849 µM; in the experiment on NCI-H460 lung it was 0.313 µM; in the experiment on NCI-H522 lung, 0.0224 µM. Also, the GI50 was 0.0293 µM in the experiment on SF-539 CNS, 0.0553 µM with SK-MEL-5 melanoma, 0.0355 µM in the experiment with SNB-75 CNS and 0.044 µM in the experiment on U251 CNS. The TGI in the experiment with 786-0 renal is 21.6 µM; in the experiment with A498 renal it was 0.314 µM; in the experiment with EKVX NSCLC it was above 100 µM; in the experiment with IGROV1 ovarian, 72.4 µM; with NCI-H460 lung, 14.4 µM; in the experiment on NCI-H522 lung, 0.0717 µM. Further, the TGI with SF-539 CNS stood at 14.6 µM; in the experiment on SK-MEL-5 melanoma, 1.34 µM; with SNB-75 CNS it was 37.9 µM; in the experiment with U251 CNS, 17.5 µM.
For `O=C(Nc1c[nH]c(=O)[nH]c1=O)Oc1ccccc1`, the TGI in the experiment with 786-0 renal, in the experiment with A498 renal, in the experiment with EKVX NSCLC, with IGROV1 ovarian, in the experiment on NCI-H460 lung and in the experiment with NCI-H522 lung was above 100 µM in each case. The TGI in the experiment on SF-539 CNS, in the experiment with SK-MEL-5 melanoma, in the experiment with SNB-75 CNS and in the experiment on U251 CNS was above 100 µM in each case.
On to `Oc1ccccc1/C=N\NC(=S)Nc1ccc(F)cc1`, for which the GI50 in the experiment on 786-0 renal was 3.38 µM; with A498 renal, 4.65 µM; in the experiment on EKVX NSCLC, 3.91 µM; in the experiment with IGROV1 ovarian, 1.31 µM; with NCI-H460 lung, 0.446 µM; in the experiment with NCI-H522 lung, 2.16 µM. The GI50 is 2.12 µM in the experiment with SF-539 CNS, 1.15 µM in the experiment on SK-MEL-5 melanoma, 1.66 µM in the experiment with SNB-75 CNS and 0.639 µM in the experiment with U251 CNS. Besides, the TGI with 786-0 renal was above 100 µM; in the experiment on A498 renal it was 49.3 µM; with EKVX NSCLC, above 50.4 µM; with IGROV1 ovarian, 17.7 µM; in the experiment on NCI-H460 lung it was 18.1 µM; in the experiment on NCI-H522 lung, above 49.4 µM. The TGI in the experiment on SF-539 CNS was 32.3 µM; in the experiment with SK-MEL-5 melanoma, 7.15 µM; in the experiment on SNB-75 CNS it was 14.9 µM; in the experiment on U251 CNS it was above 100 µM.
On to `COc1cccc(NC(=O)/C(CS(=O)(=O)CCC(C(C)=O)C(C)=O)=N\NC(C)(C)C)c1`, for which the TGI with 786-0 renal, with A498 renal, in the experiment with EKVX NSCLC, with IGROV1 ovarian, in the experiment on NCI-H460 lung and with NCI-H522 lung was above 100 µM in each case. Also, the TGI with SF-539 CNS, in the experiment with SK-MEL-5 melanoma, in the experiment on SNB-75 CNS and in the experiment on U251 CNS was above 100 µM in each case.
As to `CCn1c(=O)nc2n(-c3ccc(SC)cc3)c3ccccc3nc-2c1=O`, the TGI in the experiment on 786-0 renal, in the experiment with A498 renal, in the experiment on EKVX NSCLC, in the experiment on IGROV1 ovarian, with NCI-H460 lung and in the experiment on NCI-H522 lung was above 100 µM each time. For the same compound, the TGI in the experiment on SF-539 CNS, in the experiment on SK-MEL-5 melanoma, in the experiment on SNB-75 CNS and in the experiment on U251 CNS was above 100 µM in each case.
In the case of `COc1oc(C2C/C(=C/C(C)=C/C(C)=C/C(C)=C/c3ccc([N+](=O)[O-])cc3)CO2)c(C)c(=O)c1C` (stereo unspecified), the TGI in the experiment with 786-0 renal was found to be 21.6 µM; with A498 renal, 47.4 µM; with EKVX NSCLC, 82.6 µM; in the experiment on IGROV1 ovarian, 42.5 µM; with NCI-H460 lung it was 15.8 µM; in the experiment on NCI-H522 lung, 15.5 µM. Besides, the TGI was 33.4 µM with SF-539 CNS, 3.61 µM with SK-MEL-5 melanoma, above 57.5 µM in the experiment on SNB-75 CNS and 31.5 µM with U251 CNS.
